Test results as given in ChEMBL document CHEMBL1201862, “PubChem BioAssay data set” (2004).
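Values below derive from 48-hour exposures of cells grown in 96-well plates, with endpoints linearly interpolated between the two concentrations bracketing the appropriate inhibition level. GI50 = concentration required for 50% inhibition of growth.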 Activity calls are given as the source filed them. Cut-off read from the data, not from the text of the source: active = GI50 up to about 1.1 µM and inactive = higher.

What was measured:
Assay in all cases: inhibition of tumour cell growth, NCI panel, 48 h
A498 = test system: A498
CCRF-CEM = test system: CCRF-CEM
DU-145 = test system: DU-145
HOP-92 = test system: HOP-92
K562 = test system: K562
LOX IMVI = test system: LOX IMVI
MCF7 = test system: MCF7
MOLT-4 = test system: MOLT-4
NCI-H23 = test system: NCI-H23
NCI-H460 = test system: NCI-H460
NCI-H522 = test system: NCI-H522
OVCAR-8 = test system: OVCAR-8
PC-3 = test system: PC-3
SK-MEL-5 = test system: SK-MEL-5
SK-OV-3 = test system: SK-OV-3
SNB-19 = test system: SNB-19
SNB-75 = test system: SNB-75
T47D = test system: T47D
UACC-62 = test system: UACC-62
UO-31 = test system: UO-31

SMILES | GI50 (A498) | GI50 (CCRF-CEM) | GI50 (DU-145) | GI50 (HOP-92) | GI50 (K562) | GI50 (LOX IMVI) | GI50 (MCF7) | GI50 (MOLT-4) | GI50 (NCI-H23) | GI50 (NCI-H460) | GI50 (NCI-H522) | GI50 (OVCAR-8) | GI50 (PC-3) | GI50 (SK-MEL-5) | GI50 (SK-OV-3) | GI50 (SNB-19) | GI50 (SNB-75) | GI50 (T47D) | GI50 (UACC-62) | GI50 (UO-31)
N#CC1=C2SCCN2C(=O)C(C#N)C12CCCCC2 (stereo not given) | > 100 µM (inactive) | > 100 µM (inactive) | > 100 µM (inactive) | > 100 µM (inactive) | > 100 µM (inactive) | > 100 µM (inactive) | > 100 µM (inactive) | > 100 µM (inactive) | > 100 µM (inactive) | > 100 µM (inactive) | > 100 µM (inactive) | > 100 µM (inactive) | > 100 µM (inactive) | > 100 µM (inactive) | > 100 µM (inactive) | > 100 µM (inactive) | > 100 µM (inactive) | > 100 µM (inactive) | > 100 µM (inactive) | > 100 µM (inactive)
Cc1ccc(S(=O)ON2CCC(C(=O)O)(c3ccccc3)CC2)cc1 (stereo not given) | > 100 µM (inactive) | > 100 µM (inactive) | > 100 µM (inactive) | 45.5 µM (inactive) | > 100 µM (inactive) | > 100 µM (inactive) | > 100 µM (inactive) | > 100 µM (inactive) | > 100 µM (inactive) | > 100 µM (inactive) | > 100 µM (inactive) | > 100 µM (inactive) | > 100 µM (inactive) | > 100 µM (inactive) | > 100 µM (inactive) | > 100 µM (inactive) | > 100 µM (inactive) | > 100 µM (inactive) | > 100 µM (inactive) | > 100 µM (inactive)
Cc1c2ccccc2c(CSC(=N)N)c2ccccc12 | 0.19 µM (active) | 0.0203 µM (active) | 0.084 µM (active) | 0.29 µM (active) | 0.2 µM (active) | 0.202 µM (active) | 0.104 µM (active) | 0.0284 µM (active) | 0.106 µM (active) | 0.074 µM (active) | 0.0348 µM (active) | 0.199 µM (active) | 0.23 µM (active) | 0.162 µM (active) | 0.344 µM (active) | 0.228 µM (active) | 0.178 µM (active) | 0.535 µM (active) | 0.181 µM (active) | 0.181 µM (active)
Cc1ccc(S(=O)(=O)NNC(C[N+](=O)[O-])c2ccccc2)cc1 (stereo not given) | 16.1 µM (inactive) | > 100 µM (inactive) | 44.5 µM (inactive) | 39.8 µM (inactive) | 0.787 µM (active) | 3.64 µM (inactive) | 3.88 µM (inactive) | 3.56 µM (inactive) | 43 µM (inactive) | 17.9 µM (inactive) | 23.4 µM (inactive) | 22 µM (inactive) | 57.9 µM (inactive) | 19.4 µM (inactive) | 21.9 µM (inactive) | 7.14 µM (inactive) | 22.7 µM (inactive) | 10.9 µM (inactive) | 26.1 µM (inactive) | 22.3 µM (inactive)
Cc1cc(-n2nnc(C(=O)O)c2-c2ccccc2)c2ccc(Cl)cc2n1 | > 100 µM (inactive) | > 100 µM (inactive) | > 100 µM (inactive) | > 100 µM (inactive) | 58.1 µM (inactive) | > 100 µM (inactive) | > 100 µM (inactive) | 17.5 µM (inactive) | > 100 µM (inactive) | > 100 µM (inactive) | > 100 µM (inactive) | > 100 µM (inactive) | > 100 µM (inactive) | > 100 µM (inactive) | > 100 µM (inactive) | > 100 µM (inactive) | > 100 µM (inactive) | > 100 µM (inactive) | > 100 µM (inactive) | > 100 µM (inactive)
CC(C)Oc1cccc(N2C(NCc3c[nH]c4ccccc34)=Nc3ccncc3S2(=O)=O)c1 | 28.8 µM (inactive) | 35.2 µM (inactive) | 42.8 µM (inactive) | 15.4 µM (inactive) | 21.1 µM (inactive) | 26.9 µM (inactive) | 18.4 µM (inactive) | 16.7 µM (inactive) | 22.8 µM (inactive) | 18.5 µM (inactive) | 17.4 µM (inactive) | 29.9 µM (inactive) | 16.3 µM (inactive) | 13.9 µM (inactive) | 33.2 µM (inactive) | 32.4 µM (inactive) | 18.3 µM (inactive) | 5.47 µM (inactive) | 11.9 µM (inactive) | 47.4 µM (inactive)
Nc1nc(-c2ccccc2)c(Cl)c(-c2cc(Cl)ccc2O)n1 | 34.6 µM (inactive) | > 96.2 µM (inactive) | 11.1 µM (inactive) | 39.5 µM (inactive) | > 46.5 µM (inactive) | 21.2 µM (inactive) | 2.04 µM (inactive) | > 100 µM (inactive) | 15.8 µM (inactive) | 17 µM (inactive) | 11.6 µM (inactive) | 14 µM (inactive) | 36.1 µM (inactive) | 14.2 µM (inactive) | 17.3 µM (inactive) | 19.2 µM (inactive) | 13.7 µM (inactive) | 3.15 µM (inactive) | 50.8 µM (inactive) | 16 µM (inactive)
CNC(=O)C1CCC(=O)N1CN(C(C)=O)c1ccccc1 (stereo not given) | > 100 µM (inactive) | 0.0471 µM (active) | > 100 µM (inactive) | > 100 µM (inactive) | > 100 µM (inactive) | > 100 µM (inactive) | > 100 µM (inactive) | > 100 µM (inactive) | > 100 µM (inactive) | > 100 µM (inactive) | > 100 µM (inactive) | > 100 µM (inactive) | > 100 µM (inactive) | > 100 µM (inactive) | > 100 µM (inactive) | > 100 µM (inactive) | > 100 µM (inactive) | > 100 µM (inactive) | > 100 µM (inactive) | > 100 µM (inactive)
CN(C)CCNc1nc2c(no[n+]2[O-])c2ccccc12.[O-][Cl+3]([O-])([O-])O | 13.7 µM (inactive) | 30.3 µM (inactive) | 6.19 µM (inactive) | 22.1 µM (inactive) | 28.8 µM (inactive) | 16.8 µM (inactive) | 19.7 µM (inactive) | 32.4 µM (inactive) | 34.4 µM (inactive) | 19.5 µM (inactive) | 24.4 µM (inactive) | 14.6 µM (inactive) | 28 µM (inactive) | 15.2 µM (inactive) | 32.1 µM (inactive) | 20.7 µM (inactive) | 23.7 µM (inactive) | 57.9 µM (inactive) | 21 µM (inactive) | 19.5 µM (inactive)
COC(=O)C(/C(=N\O)C(=O)Nc1cccc(Cl)c1C)c1cnc2ccccc2n1 (stereo not given) | > 100 µM (inactive) | > 100 µM (inactive) | > 100 µM (inactive) | > 100 µM (inactive) | > 100 µM (inactive) | > 100 µM (inactive) | > 100 µM (inactive) | > 100 µM (inactive) | > 100 µM (inactive) | > 100 µM (inactive) | > 100 µM (inactive) | > 100 µM (inactive) | > 100 µM (inactive) | > 100 µM (inactive) | > 100 µM (inactive) | > 100 µM (inactive) | > 100 µM (inactive) | > 100 µM (inactive) | > 100 µM (inactive) | > 100 µM (inactive)
O=C1C(=C(C(F)(F)Cl)C(F)(F)Cl)C2CCC1C2 (stereo not given) | > 10 µM (inactive) | 0.00986 µM (active) | 7.53 µM (inactive) | 2.58 µM (inactive) | 0.63 µM (active) | 1.33 µM (inactive) | 2.49 µM (inactive) | 0.0131 µM (active) | 1.96 µM (inactive) | 3.15 µM (inactive) | 0.225 µM (active) | 1.94 µM (inactive) | 2.07 µM (inactive) | 1.67 µM (inactive) | > 10 µM (inactive) | > 10 µM (inactive) | 4.3 µM (inactive) | 1.38 µM (inactive) | 2.01 µM (inactive) | 2.49 µM (inactive)
CC(=O)Oc1ccc(-c2nnc(-c3ccc(OC(C)=O)cc3)nn2)cc1 | > 100 µM (inactive) | 40.6 µM (inactive) | > 100 µM (inactive) | > 100 µM (inactive) | 55.5 µM (inactive) | > 100 µM (inactive) | > 100 µM (inactive) | > 100 µM (inactive) | > 100 µM (inactive) | > 100 µM (inactive) | > 100 µM (inactive) | > 100 µM (inactive) | > 100 µM (inactive) | > 100 µM (inactive) | > 100 µM (inactive) | > 100 µM (inactive) | > 100 µM (inactive) | > 100 µM (inactive) | > 100 µM (inactive) | 64 µM (inactive)
O=C1CC(c2ccccc2Cl)C2(C(=O)NC(=O)NC2=O)C(c2ccccc2Cl)C1 (stereo not given) | > 100 µM (inactive) | > 100 µM (inactive) | 39.2 µM (inactive) | > 100 µM (inactive) | > 100 µM (inactive) | 51.8 µM (inactive) | 54.1 µM (inactive) | > 100 µM (inactive) | > 100 µM (inactive) | 98.4 µM (inactive) | > 100 µM (inactive) | > 100 µM (inactive) | > 100 µM (inactive) | > 100 µM (inactive) | 0.356 µM (active) | > 100 µM (inactive) | > 100 µM (inactive) | 18.8 µM (inactive) | 46.9 µM (inactive) | > 100 µM (inactive)
CC1(C)CCCC(C)(C2CCC3(C)C2C(O)CC2C4(C)CCC(O)C(C)(C)C4CCC23C)O1 (stereo not given) | > 100 µM (inactive) | > 100 µM (inactive) | > 100 µM (inactive) | 76.6 µM (inactive) | 91.8 µM (inactive) | > 100 µM (inactive) | 61.1 µM (inactive) | 93.1 µM (inactive) | > 100 µM (inactive) | 56.6 µM (inactive) | 75.5 µM (inactive) | 42.4 µM (inactive) | > 100 µM (inactive) | 47.8 µM (inactive) | 46.2 µM (inactive) | 42.6 µM (inactive) | 29.4 µM (inactive) | > 100 µM (inactive) | > 100 µM (inactive) | > 100 µM (inactive)
